How the values were obtained:
[1] = tested on: MuSKΔCRD primary myotubes; experiment: AChR clustering in MuSKΔCRD primary myotubes; type: cell-based, mice; conditions: 16 h
Description: (§1) Muscle cells were isolated from P7-P10 hind limb Tibialis Anterior (TA) and Gastrocnemius muscles from MuSKΔCRD or WT mice. Briefly, muscle tissues were excised, separated from connective tissue, minced in dissecting medium (DMEM-F12 medium containing 2 mM glutamine, 2% penicillin/streptomycin (500 U), 2% Fungizone) and dissociated in dissecting medium containing 0.2% type I collagenase (Gibco) for 90 min at 37° C. in water bath. Cells were centrifugated, filtered and resuspended in proliferating medium (dissecting medium supplemented with 20% horse serum and 2% Ultroser G, Pall). After overnight pre-plating, cells were expanded in Matrigel (Corning) coated dishes for 3 to 5 days and differentiated in differentiating medium (dissecting medium supplemented with 2% horse serum) for 5 days. When indicated, myotubes were treated with recombinant Agrin (0.4 μg/ml, R&D system), Wnt11 (10 ng/ml, R&D system) or LiCl (2.5 mM, Sigma) for 16 h.
All images were collected on a microscope (model BX61; Olympus) equipped with a Fast 1394 Digital CCD FireWire camera (model Retiga 2000R; Qimaging) and a 20× objective or on a confocal laser scanning microscope (Zeiss LSM-710) equipped with a 20× objective and 63× oil objective. Collected Z-stacks confocal images (5 to 20 stacks with 1 to 1.5 μm (20×) z-steps) and image capture were made using LSM Image Browser. The same laser power and parameter setting were applied to ensure fair comparison between WT and MuSKΔCRD muscles. […] For quantification of the AChR clusters number, volume and intensity, image stacks were quantified using the ImageJ (version 1.46m) plugin “3D object counter” (Bolte and Cordeliéres, 2006). […] At least 4 diaphragms or 50 isolated muscle fibers of each genotype were analyzed and quantified. To evaluate β-catenin translocation to subsynaptic nuclei in isolated muscle fibers, image stacks corresponding to nuclei were used for quantification using the ImageJ intensity plot profile measuring the intensity of β-catenin and Dapi fluorescence within the segmented line.

[2] = tested on: Wnt/β-catenin signaling in MuSKΔCRD mice; experiment: β-catenin translocation to subsynaptic nuclei in isolated TA muscle fibers of treated MuSKΔCRD mice; type: in vivo; conditions: P40 TA muscle fibers, compared to NaCl-treated MuSKΔCRD
Description: (§2) Isolated muscle fibers were labeled with antibodies as for whole-mount immunostaining Incubation times were the following: 3 hours for blocking, overnight at 4° C. for incubation with primary or secondary antibodies.
All images were collected on a microscope (model BX61; Olympus) equipped with a Fast 1394 Digital CCD FireWire camera (model Retiga 2000R; Qimaging) and a 20× objective or on a confocal laser scanning microscope (Zeiss LSM-710) equipped with a 20× objective and 63× oil objective. Collected Z-stacks confocal images (5 to 20 stacks with 1 to 1.5 μm (20×) z-steps) and image capture were made using LSM Image Browser. The same laser power and parameter setting were applied to ensure fair comparison between WT and MuSKΔCRD muscles. Multiple Tile Scanned images were taken to cover the size of the whole diaphragm. […] For quantification of the AChR clusters number, volume and intensity, image stacks were quantified using the ImageJ (version 1.46m) plugin “3D object counter” (Bolte and Cordeliéres, 2006). […] At least 4 diaphragms or 50 isolated muscle fibers of each genotype were analyzed and quantified. To evaluate β-catenin translocation to subsynaptic nuclei in isolated muscle fibers, image stacks corresponding to nuclei were used for quantification using the ImageJ intensity plot profile measuring the intensity of β-catenin and Dapi fluorescence within the segmented line. […]

MuSKΔCRD mice [3] = experiment: Rail-grip test and grip strength in treated MuSKΔCRD mice; type: in vivo; conditions: compared to NaCl-treated MuSKΔCRD mice
Description: Animals were allowed to grasp a metal rail suspended in midair and their latency to release the rail was recorded. Each mouse (N=6 for each genotype) was subjected to five trials with at least 10 min rest period between tests.
The grip strength was measured using a grip force tensiometer (Bioseb) according to the TREAT-NMD guidelines. Forelimbs and hindlimbs traction strength were recorded according to the manufacter's instructions. Three measurements were performed per animal.
(§3) E12 pregnant mice or P10 adult mice were intraperitoneally injected with LiCl (Sigma, 600 mM-10 μl/g body weight) or placebo NaCl solution (0,0009%-10 μl/g body weight). Daily injections were made from E12 to E18 or from P10 to P60. After embryos genotyping, E18.5 or P60 diaphragms of LiCl-treated MuSKΔCRD mice were analyzed and compared to WT or NaCl-treated MuSKΔCRD.

MuSKΔCRD mice [4] = experiment: NMJ morphology in postnatal MuSKΔCRD mice injected P10 to P60 (isolated TA muscle fibers); type: in vivo
Description: as §2
(§4) All images were collected on a microscope (model BX61; Olympus) equipped with a Fast 1394 Digital CCD FireWire camera (model Retiga 2000R; Qimaging) and a 20× objective or on a confocal laser scanning microscope (Zeiss LSM-710) equipped with a 20× objective and 63× oil objective. Collected Z-stacks confocal images (5 to 20 stacks with 1 to 1.5 μm (20×) z-steps) and image capture were made using LSM Image Browser. The same laser power and parameter setting were applied to ensure fair comparison between WT and MuSKΔCRD muscles. Multiple Tile Scanned images were taken to cover the size of the whole diaphragm. Confocal images presented are single-projected image derived from overlaying each set of stacks. For quantification of the AChR clusters number, volume and intensity, image stacks were quantified using the ImageJ (version 1.46m) plugin “3D object counter” (Bolte and Cordeliéres, 2006). The threshold intensity was set by visual inspection of AChR clusters, being the same between WT and MuSKΔCRD images. The endplate band width was defined by the distance between the two farthest AChR clusters from the main nerve trunk. Around 100 measurements regularly spaced and covering the entire diaphragm were taken. At least 4 diaphragms or 50 isolated muscle fibers of each genotype were analyzed and quantified. To evaluate β-catenin translocation to subsynaptic nuclei in isolated muscle fibers, image stacks corresponding to nuclei were used for quantification using the ImageJ intensity plot profile measuring the intensity of β-catenin and Dapi fluorescence within the segmented line.
E12 pregnant mice or P10 adult mice were intraperitoneally injected with LiCl (Sigma, 600 mM-10 μl/g body weight) or placebo NaCl solution (0,0009%-10 μl/g body weight). Daily injections were made from E12 to E18 or from P10 to P60. […]

[5] = tested on: Wnt/β-catenin signaling in MuSKΔCRD primary myotubes; experiment: β-catenin translocation to the nucleus in primary myotubes; type: cell-based, mice
Description: as §1

MuSKΔCRD embryos = experiment: NMJ formation in E18.5 MuSKΔCRD embryos after intraperitoneal injections in pregnant mice (whole mount diaphragm); type: in vivo
Description: Diaphragm muscles were dissected and fixed (4% paraformaldehyde in PBS) for 1 h at room temperature and further fixed (1% formaldehyde in PBS) overnight at 4° C. Muscles were washed three times for 15 minutes in PBS, incubated for 15 minutes with 100 mM glycine in PBS and rinsed in PBS. Muscles were permeabilized (0.5% Triton X-100 in PBS) for 1 h and blocked for 4 hours in blocking buffer (3% BSA, 5% goat serum and 0.5% Triton X-100 in PBS). Muscles were incubated overnight at 4° C. with rabbit polyclonal antibodies against neurofilament and synaptophysin in blocking solution. After three 1-hour washes in PBS, muscles were incubated overnight at 4° C. with Alexa-488 goat anti-rabbit IgG and Alexa-594-conjugated-α-bungarotoxin (α-BGT) in blocking solution. After three 1-hour washes in PBS, muscles were flat-mounted in Vectashield (Vector Labs) mounting medium.
as §4, §3

WT primary myotubes = experiment: AChR clustering in WT primary myotubes; type: cell-based, mice; conditions: Wnt11 10 ng/ml, 16 h
Description: as §1, with “When indicated, myotubes were treated with recombinant Agrin (0.4 μg/ml, R&D system), Wnt11 (10 ng/ml, R&D system) or LiCl (2.5 mM, Sigma) for 16 h.” left out
All images were collected on a microscope (model BX61; Olympus) equipped with a Fast 1394 Digital CCD FireWire camera (model Retiga 2000R; Qimaging) and a 20× objective or on a confocal laser scanning microscope (Zeiss LSM-710) equipped with a 20× objective and 63× oil objective. […] For quantification of the AChR clusters number, volume and intensity, image stacks were quantified using the ImageJ (version 1.46m) plugin “3D object counter” (Bolte and Cordeliéres, 2006). […] At least 4 diaphragms or 50 isolated muscle fibers of each genotype were analyzed and quantified. […]

[6] = P40 TA, compared to NaCl-treated mice
[7] = E18.5, i.p. E12 to E18.5, vs NaCl-treated MuSKΔCRD

**Q.** Which “number of AChR clusters following agrin treatment” value ([1]; MuSKΔCRD compared to WT primary myotubes, agrin 0.4 μg/ml) does the source give for “agrin: recombinant Agrin (R&D system), nerve-secreted protein that binds LRP4 and activates MuSK” here?
**A.** No difference

**Q.** Which “β-catenin translocation to subsynaptic nuclei” value [2] does the source give for `[Cl-].[Li+]` [LiCl, lithium chloride] here?
**A.** strong increase

**Q.** What about the fore limb strength (MuSKΔCRD mice [3]) of the same molecule?
**A.** significantly improved

**Q.** What about the hind limb strength (MuSKΔCRD mice [3]) of the same molecule?
**A.** significantly improved

**Q.** What about the “latencies to fall from the rail grip” value (MuSKΔCRD mice [3]) of the same molecule?
**A.** significantly improved

**Q.** What about the “size of NMJ structures” value (MuSKΔCRD mice [4]; P40 TA isolated muscle fibers, compared to NaCl-treated MuSKΔCRD) of the same molecule?
**A.** increased in size

**Q.** What about the “decrease of number of AChRs fragments per NMJ” value (MuSKΔCRD mice [4]; [6]) of the same molecule?
**A.** 44%

**Q.** And the “increase of AChR cluster area” value (MuSKΔCRD mice [4]; [6])?
**A.** 40%

**Q.** And the “increase of synaptophysin area” value (MuSKΔCRD mice [4]; [6])?
**A.** 105%

**Q.** What about the “β-catenin translocation to the nucleus” value ([5]; LiCl-treated compared to Wnt11-treated MuSKΔCRD myotubes) of the same molecule?
**A.** increased β-catenin translocation to the nucleus

**Q.** What about the “reduction of number of bypassing neurites” value (MuSKΔCRD embryos; E18.5, compared to NaCl-treated embryos) of the same molecule?
**A.** 33%

**Q.** And the “reduction of length of primary nerve branches” value (MuSKΔCRD embryos; E18.5, i.p. E12 to E18.5)?
**A.** 35%

**Q.** What about the “reduction of length of secondary nerve branches” value (MuSKΔCRD embryos; E18.5, i.p. E12 to E18.5) of the same molecule?
**A.** 28%

**Q.** What about the “endplate band width reduction” value (MuSKΔCRD embryos; E18.5, i.p. E12 to E18.5, compared to NaCl-treated mutant embryos) of the same molecule?
**A.** 23%

**Q.** And the “gain in AChR clusters intensity” value (MuSKΔCRD embryos; [7])?
**A.** 20%

**Q.** And the “gain in AChR clusters number” value (MuSKΔCRD embryos; [7])?
**A.** 103%

**Q.** And the “gain in AChR clusters volume” value (MuSKΔCRD embryos; [7])?
**A.** 186%

**Q.** And the “rescue of pre- and postsynaptic defects” value (MuSKΔCRD embryos; E18.5 MuSKΔCRD embryos)?
**A.** almost fully rescued both pre- and postsynaptic defects

**Q.** And the “increase in the number of AChR clusters” value ([1]; LiCl 2.5 mM, MuSKΔCRD primary myotubes)?
**A.** 6 fold

B1: Wnt11: member of the Wnt family known to interact with MuSK CRD; recombinant, R&D system (protein, UniProt O96014 25-354, looked up)
Protein Wnt-11: IKWLALSKTPSALALNQTQHCKQLEGLVSAQVQLCRSNLELMHTVVHAAREVMKACRRAFADMRWNCSSIELAPNYLLDLERGTRESAFVYALSAAAISHAIARACTSGDLPGCSCGPVPGEPPGPGNRWGGCADNLSYGLLMGAKFSDAPMKVKKTGSQANKLMRLHNSEVGRQALRASLEMKCKCHGVSGSCSIRTCWKGLQELQDVAADLKTRYLSATKVVHRPMGTRKHLVPKDLDIRPVKDSELVYLQSSPDFCMKNEKVGSHGTQDRQCNKTSNGSDSCDLMCCGRGYNPYTDRVVERCHCKYHWCCYVTCRRCERTVERYVCK
**Q.** Which “β-catenin translocation to the nucleus” value ([5]; Wnt11-treated MuSKΔCRD compared to Wnt11-treated WT primary myotubes) does the source give for B1 here?
**A.** strongly reduced

**Q.** What about the “increase in the number of AChR clusters” value (WT primary myotubes) of the same molecule?
**A.** 4.5 fold

**Q.** And the “decrease of Wnt11-induced number of AChR clusters” value ([1]; Wnt11-treated MuSKΔCRD primary myotubes, compared to Wnt11-treated WT, 10 ng/ml)?
**A.** 80%
